For one test, the system named is conscious rats. Briefly: Effect on mean arterial blood pressure (MAP) and heart rate after intra-arterial injection in conscious rats. Type of test: in vivo, rat. The method, then: (§1) Saline solutions of the peptides are injected intra-arterially into conscious rats, and arterial pressure is monitored via an indwelling femoral cannula directly coupled to a pressure transducer. […] Control animals receive saline vehicle alone.
Saline solutions of the peptides were administered intraarterially in a 100-μL bolus in an amount equal to about 0.4 mg/Kg body weight.

For test [1], the system named is hypertensive actions of NPY. Briefly: NPY-induced increase in MAP in animals pretreated with NPY(18-36). As to conditions: NPY 1 μg intra-arterially, 3 animals. Type of test: in vivo, rat. The method, then:
as §1

The next test relates to intracellular Ca++. Briefly: Elevation of intracellular Ca++ concentrations. Type of test: cell-based. As to conditions: 100 nM NPY after 100 nM NPY (18-36).

For `CC[C@H](C)[C@H](NC(=O)[C@H](Cc1ccc(O)cc1)NC(=O)[C@H](Cc1c[nH]cn1)NC(=O)[C@H](CCCNC(=N)N)NC(=O)[C@H](CC(C)C)NC(=O)[C@H](C)NC(=O)[C@H](CO)NC(=O)[C@H](Cc1ccc(O)cc1)NC(=O)[C@H](Cc1ccc(O)cc1)NC(=O)[C@H](CCCNC(=N)N)NC(=O)[C@H](C)NC(=O)[C@@H](N)CC(C)C)C(=O)N[C@@H](CC(N)=O)C(=O)N[C@@H](CC(C)C)C(=O)N[C@H](C(=O)N[C@H](C(=O)N[C@@H](CCCNC(=N)N)C(=O)N[C@@H](CCC(N)=O)C(=O)N[C@@H](CCCNC(=N)N)C(=O)N[C@@H](Cc1ccc(O)cc1)C(N)=O)[C@@H](C)O)[C@@H](C)CC` [pNPY(17-36)], in the test on conscious rats, the “decrease in MAP at five and ten minutes after administration” value was “significantly decrease MAP”.
With Neuropeptide Y [NPY], the “increase in MAP obtained by NPY administration” value is listed as 28±5 mmHg in test [1] (animals pretreated with NPY(18-36) 300 μg) and 32±5 mmHg in test [1] (control animals). In the test with intracellular Ca++, the “elevation of intracellular Ca++ by NPY after addition of NPY(18-36)” value was “to the same extent as under control conditions”.
